Measured values taken from US20240374590A1, “COMPOSITIONS AND METHODS FOR TREATING CANCER” (A2A PHARMACEUTICALS, INC., priority 2021, published 2024).

Tests used:
[1] = system: JIMT-1 human breast cancer cell line; test: Cell viability assay (SRB) in JIMT-1; format: cell-based; conditions: 72 hours after treatment, read-out: JIMT1 IC50
Method: (§1) Human colon carcinoma cell line HCT-116 was a kind gift from Igor Ronninson from University of South Caroli, Columbia, USA. Human breast cancer cell line, JIMT-1 was kindly provided by Ali Osmay Güre from Bilkent University, Ankara, Turkey. Cells were cultured in Dulbecco's modified Eagle's medium (Lonza, NJ, USA), supplemented with 10% fetal bovine serum (FBS, Lonza), 1% non-essential amino acid (NEAA), 2 mM L-glutamine (Sigma Aldrich, MO, USA) and 50 U/ml penicillin/streptomycin (P/S). HCT-116 cells were cultured in McCoy's 5A (modified) (Gibco) medium supplemented with FBS, NEAA, L-glutamine and P/S. All cell lines were tested regularly using MycoAlert Mycoplasma Detection Kit (Lonza). The cumulative length of the cells between thawing and use in the experiments was less than 20 passages.
(§2) Newly synthesized molecules were dissolved in 100% DMSO to yield a stock concentration of 10 mM. For cell viability assay, JIMT-1 (3×10^3 cells/well) and HCT-116 (4×10^3), cells were seeded into 96-well plates, and 24 hours after cell seeding inhibitor treatments were performed at different concentrations. Cell viability was measured 72 hours after treatment with Sulforhodamine B (SRB, Sigma Aldrich) assay as recommended by the manufacturer.

[2] = system: HCT-116 human colon carcinoma cell line; test: Cell viability assay (SRB) in HCT-116; format: cell-based; conditions: 72 hours after treatment, read-out: HCT116 IC50
Method: as §1, §2

Row | SMILES | IC50 [1] | IC50 [2]
1 | COc1ccc(-c2cc(Nc3ccnc(N4CCOC(C(F)(F)F)C4)n3)[nH]n2)c(F)c1 (stereo not drawn) [Compound 139, N-(3-(2-fluoro-4-methoxyphenyl)-1H-pyrazol-5-yl)-2-(2-(trifluoromethyl)morpholino)pyrimidin-4-amine] | 0.091 µM | 0.146 µM
2 | COc1ccc(-c2cc(Nc3ccnc(N4CC5COCC5C4)n3)[nH]n2)c(F)c1 (stereo not drawn) [Compound 140, N-(3-(2-fluoro-4-methoxyphenyl)-1H-pyrazol-5-yl)-2-(tetrahydro-1H-furo[3,4-c]pyrrol-5(3H)-yl)pyrimidin-4-amine] | 0.107 µM | 0.457 µM
3 | COc1ccc(-c2cc(Nc3ccnc(N4CC5CC5C4)n3)[nH]n2)c(F)c1 (stereo not drawn) [Compound 141, 2-(3-azabicyclo[3.1.0]hexan-3-yl)-N-(3-(2-fluoro-4-methoxyphenyl)-1H-pyrazol-5-yl)pyrimidin-4-amine] | 0.041 µM | 0.163 µM
4 | COc1ccc(-c2cc(Nc3ccnc(N4CCC5(CCC5)CC4)n3)[nH]n2)c(F)c1 [Compound 142, N-(3-(2-fluoro-4-methoxyphenyl)-1H-pyrazol-5-yl)-2-(7-azaspiro[3.5]nonan-7-yl)pyrimidin-4-amine] | 0.266 µM | 1.21 µM
5 | COc1ccc(-c2cc(Nc3ccnc(N4CCC(C)(C)CC4)n3)[nH]n2)c(F)c1 [Compound 143, 2-(4,4-dimethylpiperidin-1-yl)-N-(3-(2-fluoro-4-methoxyphenyl)-1H-pyrazol-5-yl)pyrimidin-4-amine] | 0.426 µM | 1.01 µM
6 | COc1ccc(-c2cc(Nc3ccnc(N4CCC5(CC4)CC5)n3)[nH]n2)c(F)c1 [Compound 144, N-(3-(2-fluoro-4-methoxyphenyl)-1H-pyrazol-5-yl)-2-(6-azaspiro[2.5]octan-6-yl)pyrimidin-4-amine] | 0.119 µM | 0.33 µM
7 | COc1ccc(-c2cc(Nc3ccnc(N4C5CCC4CC(C)C5)n3)[nH]n2)c(F)c1 (stereo not drawn) [Compound 145, N-(3-(2-fluoro-4-methoxyphenyl)-1H-pyrazol-5-yl)-2-(3-methyl-8-azabicyclo[3.2.1]octan-8-yl)pyrimidin-4-amine] | 0.101 µM | 0.279 µM
8 | COc1ccc(-c2cc(Nc3ccnc(N4CC5(COC5)C4)n3)[nH]n2)c(F)c1 [Compound 146, N-(3-(2-fluoro-4-methoxyphenyl)-1H-pyrazol-5-yl)-2-(2-oxa-6-azaspiro[3.3]heptan-6-yl)pyrimidin-4-amine] | 0.479 µM | 0.534 µM
9 | COc1ccc(-c2cc(Nc3ccnc(N4CCN(C)CC4)n3)[nH]n2)c(F)c1 [Compound 148, N-(3-(2-fluoro-4-methoxyphenyl)-1H-pyrazol-5-yl)-2-(4-methylpiperazin-1-yl)pyrimidin-4-amine] | 0.213 µM | 0.986 µM
10 | COc1ccc(-c2cc(Nc3ccnc(N4C[C@@H](C)O[C@H](C)C4)n3)[nH]n2)c(F)c1 [Compound 149, 2-((2R,6R)-2,6-dimethylmorpholino)-N-(3-(2-fluoro-4-methoxyphenyl)-1H-pyrazol-5-yl)pyrimidin-4-amine] | 0.065 µM | 0.115 µM
11 | COc1ccc(-c2cc(Nc3ccnc(N4C[C@H](C)O[C@@H](C)C4)n3)[nH]n2)c(F)c1 [Compound 150, 2-((2S,6S)-2,6-dimethylmorpholino)-N-(3-(2-fluoro-4-methoxyphenyl)-1H-pyrazol-5-yl)pyrimidin-4-amine] | 0.016 µM | 0.023 µM
12 | COc1ccc(-c2cc(Nc3ccnc(N4CCCC4)n3)[nH]n2)c(F)c1 [Compound 151, N-(3-(2-fluoro-4-methoxyphenyl)-1H-pyrazol-5-yl)-2-(pyrrolidin-1-yl)pyrimidin-4-amine] | 0.018 µM | 0.052 µM
13 | COc1ccc(-c2cc(Nc3ccnc(N4CCCCC4)n3)[nH]n2)c(F)c1 [Compound 152, N-(3-(2-fluoro-4-methoxyphenyl)-1H-pyrazol-5-yl)-2-(piperidin-1-yl)pyrimidin-4-amine] | 0.005 µM | 0.011 µM
14 | COc1ccc(-c2cc(Nc3ccnc(N4CCC4)n3)[nH]n2)c(F)c1 [Compound 153, 2-(azetidin-1-yl)-N-(3-(2-fluoro-4-methoxyphenyl)-1H-pyrazol-5-yl)pyrimidin-4-amine] | 0.006 µM | 0.01 µM
15 | COc1ccc(-c2cc(Nc3ccnc(N4CCCC4C)n3)[nH]n2)c(F)c1 (stereo not drawn) [Compound 159, N-(3-(2-fluoro-4-methoxyphenyl)-1H-pyrazol-5-yl)-2-(2-methylpyrrolidin-1-yl)pyrimidin-4-amine] | 0.047 µM | 0.076 µM
16 | COc1ccc(-c2cc(Nc3ccnc(N4CCC(C)C4)n3)[nH]n2)c(F)c1 (stereo not drawn) [Compound 160, N-(3-(2-fluoro-4-methoxyphenyl)-1H-pyrazol-5-yl)-2-(3-methylpyrrolidin-1-yl)pyrimidin-4-amine] | 0.039 µM | 0.147 µM

More lines, now with the values ahead:

Row | IC50 [1] | IC50 [2] | SMILES
17 | 0.041 µM | 0.089 µM | COc1ccc(-c2cc(Nc3ccnc(N4CCCCCC4)n3)[nH]n2)c(F)c1 [Compound 167, 2-(azepan-1-yl)-N-(3-(2-fluoro-4-methoxyphenyl)-1H-pyrazol-5-yl)pyrimidin-4-amine]
18 | 2.63 µM | 4.48 µM | COc1ccc(-c2n[nH]c(Nc3ccnc(N4CCOCC4)n3)c2C)cc1 [Compound 181, N-(3-(4-methoxyphenyl)-4-methyl-1H-pyrazol-5-yl)-2-morpholinopyrimidin-4-amine]
19 | 8.79 µM | 20 µM | COc1ccc(-c2cc(Nc3ccnc(N4CCOCC4)n3)n(C)n2)cc1 [Compound 184, N-(3-(4-methoxyphenyl)-1-methyl-1H-pyrazol-5-yl)-2-morpholinopyrimidin-4-amine]
20 | 0.158 µM | 0.228 µM | COc1ccc(-c2cc(Nc3ccnc(N4C[C@@H](C)O[C@@H](C)C4)n3)n(C)n2)c(F)c1 [Compound 187, 2-((2R,6S)-2,6-dimethylmorpholino)-N-(3-(2-fluoro-4-methoxyphenyl)-1-methyl-1H-pyrazol-5-yl)pyrimidin-4-amine]
21 | 0.251 µM | 0.484 µM | COc1ccc(-c2cc(Nc3ccnc(N4C[C@@H](C)O[C@@H](C)C4)n3)nn2C)c(F)c1 [Compound 190, 2-((2R,6S)-2,6-dimethylmorpholino)-N-(5-(2-fluoro-4-methoxyphenyl)-1-methyl-1H-pyrazol-3-yl)pyrimidin-4-amine]
22 | 1.57 µM | 1.52 µM | C[C@@H]1CN(c2nccc(Nc3cc(-c4ccc(C#N)cc4)n[nH]3)n2)C[C@H](C)O1 [Compound 191b, 4-(5-((2-((2R,6S)-2,6-dimethylmorpholino)pyrimidin-4-yl)amino)-1H-pyrazol-3-yl)benzonitrile]
23 | 4.64 µM | 8.97 µM | C[C@@H]1CN(c2nccc(Nc3cc(-c4ccc(OC(F)(F)F)c(Cl)c4)n[nH]3)n2)C[C@H](C)O1 [Compound 192b, N-(3-(3-chloro-4-(trifluoromethoxy)phenyl)-1H-pyrazol-5-yl)-2-((2R,6S)-2,6-dimethylmorpholino)pyrimidin-4-amine]
24 | 0.383 µM | 0.619 µM | C[C@@H]1CN(c2nccc(Nc3cc(-c4ccc(F)cc4)[nH]n3)n2)C[C@H](C)O1 [Compound 196, 2-((2R,6S)-2,6-dimethylmorpholino)-N-(5-(4-fluorophenyl)-1H-pyrazol-3-yl)pyrimidin-4-amine]
25 | 0.143 µM | 0.386 µM | C[C@@H]1CN(c2nccc(Nc3cc(-c4ccc(C(C)(F)F)cc4)n[nH]3)n2)C[C@H](C)O1 [Compound 200, N-(3-(4-(1,1-difluoroethyl)phenyl)-1H-pyrazol-5-yl)-2-((2R,6S)-2,6-dimethylmorpholino)pyrimidin-4-amine]
26 | 0.076 µM | 0.091 µM | C[C@@H]1CN(c2nccc(Nc3cc(-c4ccc(OC(F)F)cc4)n[nH]3)n2)C[C@H](C)O1 [Compound 201, N-(3-(4-(difluoromethoxy)phenyl)-1H-pyrazol-5-yl)-2-((2R,6S)-2,6-dimethylmorpholino)pyrimidin-4-amine]
27 | 0.187 µM | 0.722 µM | C[C@@H]1CN(c2nccc(Nc3cc(-c4ccc(C(F)F)cc4)n[nH]3)n2)C[C@H](C)O1 [Compound 202, N-(3-(4-(difluoromethyl)phenyl)-1H-pyrazol-5-yl)-2-((2R,6S)-2,6-dimethylmorpholino)pyrimidin-4-amine]
28 | 1.7 µM | 2.49 µM | COc1cc(-c2cc(Nc3ccnc(N4C[C@@H](C)O[C@@H](C)C4)n3)[nH]n2)cc(OC)c1OC [Compound 203, 2-((2R,6S)-2,6-dimethylmorpholino)-N-(3-(3,4,5-trimethoxyphenyl)-1H-pyrazol-5-yl)pyrimidin-4-amine]
29 | 0.027 µM | 0.096 µM | C[C@@H]1CN(c2nccc(Nc3cc(-c4ccc5occc5c4)n[nH]3)n2)C[C@H](C)O1 [Compound 205, N-(3-(benzofuran-5-yl)-1H-pyrazol-5-yl)-2-((2R,6S)-2,6-dimethylmorpholino)pyrimidin-4-amine]
30 | 0.974 µM | 5.53 µM | COc1ccc(-c2cc(Nc3ccnc(N4C[C@@H](C)O[C@@H](C)C4)n3)[nH]n2)cc1C(F)(F)F [Compound 207, 2-((2R,6S)-2,6-dimethylmorpholino)-N-(3-(4-methoxy-3-(trifluoromethyl)phenyl)-1H-pyrazol-5-yl)pyrimidin-4-amine]
